Earlier results on five compounds are cited in patent US20160231323A1, “PROTECTION OF TCR SIGNALING CHAINS IN CANCER PATIENTS AND ENHANCEMENT OF CAR-T CELL THERAPY” (Batu Biologics, Inc., priority 2015, published 2016).

Data set [1] concerns sepsis-induced immune suppression. Particulars: animals undergoing experimental sepsis.
A further data set concerns plasma CRP. Particulars: 1000 mg/day for 2 months, healthy nonsmokers, versus vitamin E or placebo.
For a further data set, the system named is HIF-1 alpha. Particulars: results in suppressed angiogenic activity.
Data set [2] concerns proliferating tumor endothelial cells.
Another data set has as its system tumors. Particulars: paradoxical oxidative mechanism.
Data set [3] concerns CD8(+) effector and effector memory T cells. Particulars: mice given vitamin C treated DC loaded with tumor lysate.
A further data set concerns PGE 2. The conditions noted are these: several animal models.
The test system of data set [4] is IFN-[…] and IL-2 production. The conditions noted are these: daily dose of 750 mg for 2 weeks, Duke's C and D colorectal cancer.
Data set [5] concerns constitutively activated neutrophils.
The test system of data set [6] is markers of oxidative stress. The conditions noted are these: smokers.
The test system of a further data set is Kaposi Sarcoma. Particulars: oral administration.
The test system of another data set is TCR-ζ. The conditions noted are these: addition to co-incubation of cancer patient neutrophils with healthy lymphocytes.

Take `O=C1O[C@H]([C@@H](O)CO)C(O)=C1O` [ascorbic acid]: the “immune suppression in experimental sepsis” value in data set [1] is “blocked immune suppression”. In addition, the “plasma CRP levels” value in the data set on plasma CRP is given as “statistically significant decrease”. Moreover, the “tumor expression of HIF-1 alpha” value in the data set with HIF-1 alpha is on record as “reduce tumor expression of HIF-1 alpha”. Further, the “effect on proliferating tumor endothelial cells” value in [2] is reported as “Direct suppression”. Also, the effect on tumors result in the data set on tumors was “direct killing effect”. In [3] (versus control DC), the “frequency of effector and effector memory T cells” value is “higher frequency”. For the same compound, the “ex vivo killing of tumor cells by the T cells” value in data set [3] (versus controls) is reported as “increased ex vivo killing effect”.

For `COc1ccc2c(c1)c(CC(=O)O)c(C)n2C(=O)c1ccc(Cl)cc1` [indomethacin], the metastatic progression result in the data set with PGE 2 is recorded as “significantly impedes metastatic progession”.

As for vitamin E, in data set [4], the “IFN-[…] and IL-2 production” value was “restoration of IFN-[…] and IL-2 production”.

As to `CC(=O)N[C@@H](CS)C(=O)O` [n-acetylcysteine], the “immune suppression in experimental sepsis” value in data set [1] is recorded as “blocked immune suppression”. Moreover, the “clinical effect in sepsis” value in data set [5] (as a monotherapy) is “little clinical effect”. In data set [5] (therapeutic administration), the “constitutively activated neutrophils in sepsis patients” value is “suppression of the constitutively activated neutrophils”. For the same compound, the “markers of oxidative stress” value in [6] was “suppression of markers of oxidative stress”. In the data set on Kaposi Sarcoma, the angiogenesis result is “blocks angiogenesis” and the “growth of Kaposi Sarcoma” value was “suppresses growth of Kaposi Sarcoma”.

On to catalase, for which, in the data set on TCR-ζ, the TCR-ζ downregulation entry is on record as “suppressed TCR-ζ downregulation”.
